Laboratory results as given in patent US7829548B2, “Compounds useful in the treatment of HIV” (Medivir AB, priority 2004, dated 2010).
Like-named read-outs stand apart in the source and are kept apart here.

Tests used:
HIV-1 RT [1] = biological target: T1, HIV-1 RT (Human immunodeficiency virus type 1 group M subtype B, UniProt P04585); assay: Residual free 3′-OH primer terminus after pre-incubation, second round of RT-catalysed DNA polymerization; assay type: biochemical; conditions: pre-incubation 10 and 30 minutes; ddCTP compared to the triphosphate of the compound of the invention
Description: The presence of a 3′-hydroxymethyl group in the compound of the invention should, in principle, support incorporation and elongation into the viral nucleic acid catalyzed by HIV-1 RT. A rate-limiting amount of primer-template (16S and 23S ribosomal RNA annealed with an oligo-DNA primer with the sequence of 5′-[…]-3′ (SEQ ID NO:1), custom synthesized by INNOVAGEN) was used. This was pre-incubated with 100 μM (55 times the IC50) 2′-3′-dideoxy-3′-C-hydroxymethylcytidine-triphosphate, 6.0 μM ddC-triphosphate (54 times the IC50 ddCTP), 20 μM deoxycytosine-triphosphate (20 times the Km dCTP) or the control (H2O). At the time points indicated (0, 10, 30, 60, and 120 min), the DNA polymerization process was stopped by inactivation of the RT at 70° C. for 2 min during the first round of DNA polymerization (FIG. 9).
The residual amount of primer-template directly reflects the availability of free 3′-OH primer terminus present after the first round of reaction. […] The availability of free 3′-OH at the primer terminus in the residual amount of primer-template that supported further DNA polymerization was measured and expressed as a function of pre-incubation time (FIG. 10).

HIV-1 RT [2] = biological target: T1, HIV-1 RT; assay: DNA chain termination assay (M13mp18 template, gel autoradiography); assay type: biochemical
Description: Two deoxycytosine analogues, the conventional NRTI ddC lacking a 3′-hydroxyl group function and the compound of the invention, were subjected to a DNA chain termination assay in which DNA prolongation was conducted with M13mp18 single strand DNA template pre-annealed to an oligo-DNA primer (the forward primer sequence of 5′-[…]-3′ (SEQ ID NO:2) was purchased from Amersham UK. M13mp18 single strand […] was annealed to this oligo-DNA primer giving a final concentration of 1 mg/ml in a buffer containing 10 mM Tris-HCl, pH 7.9 and 100 mM NaCl, and was stored in aliquots at −20° C. DNA polymerization was conducted using this annealed template/primer, HIV-1 RT and natural dNTPs in a reaction incubated at 37° C. for 25 min. The reaction was stopped by the addition of Stop solution containing 95% Formamide, 20 mM EDTA, 0.05% Bromophenol Blue and 0.05% Xylene Cyanol FF (purchased from USB, United States Biochemical via Amersham UK). After denaturing the DNA products, the elongated DNA fragment was electrophoresed on an 8.0% polyacrylamide gel and visualized using autoradiography.
The assay included a negative control (the native dNTP), dual positive ddCTP controls (ddCTP, 8 uM from Sigma Chemical, St. Louis, Miss., USA and ddCTP obtained from a USB sequence kit United States Biochemical via Amersham UK). Various molecule ratios of the triphosphate of the compound of the invention and the natural dNTP were used. After the reaction was conducted as described above, the denatured DNA fragments from each individual reaction was loaded onto an 8.0% polyacrylamide gel in the following order: • 1—Negative control • 2—1st Positive control 8 μM ddCTP (purchased from Sigma) • 3—20 μM inventionTP in 200 μM dNTP • 4—30 μM inventionTP in 300 μM dNTP • 5—40 μM invention TP in 400 μM dNTP • 6—50 μM invention TP in 500 μM dNTP • 7—20 μM invention TP in 80 μM dNTP • 8—40 μM invention TP in 80 μM dNTP • 9—Empty space (no loading) • 10—2nd positive control ddCTP (from USB sequence kit)

[3] = Release of parent compound from prodrugs in pooled human plasma; assay type: in vitro ADME; conditions: 37C, spiked with 5 uM of the prodrug
Description: Confirmation that the prodrugs of the invention convert completely to active 2′3′-dideoxy-3′-C-hydromethylcytosine parent compound can be assessed by monitoring the appearance of the parent compound in pooled human plasma, 37C, spiked with 5 uM of the prodrug: […]

[4] = test system: TAM primer rescue-related resistant HIV isolates; assay: Drug susceptibility assay in PBMC culture (p24 antigen); assay type: cell-based, HIV-1
Description: The antiviral performance of the compound of the invention against additional TAM primer rescue-related resistant HIV isolates was assayed in a PBMC culture. Isolates of HIV-1 were generated and expanded to high titer by co-cultivation of infected patient PBMC with PHA-stimulated donor PBMC (Virology Manual for ACTG HIV Laboratories). The cell-free supernatants were harvested, sequenced, and stored in aliquots at −70° C. for drug susceptibility assays.
In vitro drug susceptibility assays were performed using a modified ACTG/DOD consensus method (Virology Manual for ACTG HIV laboratories). PBMCs were pre-infected with viral stocks for 4 hrs at […] in a humidified atmosphere of 5% CO2 following 4 hr incubation. Infected cells were washed twice in media and pipetted into a microtiter plate with eight serial drug dilutions. Each well contained 100,000 pre-infected PBMC and all drug dilutions were made with cell culture medium. The drug dilutions were chosen to span the 50% inhibitory concentration (IC50) for each single drug. Control wells containing cells and virus were co-incubated on each plate. After a 7-day incubation at […] in a […] atmosphere of 5% CO2, viral growth was determined using a p24 antigen assay on supernatants (Abbott Laboratories, Chicago, USA). The percent inhibition of viral growth compared to the control well, which contained no drug, was calculated and expressed as fold changes (reductions in compounds susceptibility) compared to the control well. The reference compound AZT was run in parallel with the compound of the invention.
A cluster of representative of primer rescue-related mutant virus was selected that harbors the essential feature of primer rescue-related TAM resistant RT mutations. Strains with mutations at position M41L, D67N, K70R, L210W, T215Y/F and K219Q/E in various combinations with or without discriminative mutant M184V were used as indicated in Table 4.

[5] = test system: HIV-1 isolates from patient plasma samples; assay type: cell-based; conditions: for FC value: isolate 4 (K65R+M184V, R211S, K219E)
Description: The susceptibility of 2′,3′-dideoxy-3′-C-hydroxymethyl-cytosine on HIV-1 isolates from patient plasma samples that bear typical TAM primer rescue mutant resistant genotypes is determined by the commercially available PhenoSense HIV assay (described in Petropoulos, C J et al., (2000) Antimicrob. Agents Chemother. 44:920-928 and performed by ViroLogics, Inc). The assay is performed by amplifying the protease (PR)-RT segment of the HIV pol gene from patient plasma and inserting the amplification products into a modified HIV-1 vector derived from an NL4-3 molecular clone.
Viral stocks are prepared by co-transfecting 293 cell cultures with recombinant viral DNA vector and an expression vector that produces the amphotropic murine leukemia virus envelope proteins. Pseudotyped virus particles are harvested from the transfected cell cultures and are used to infect fresh 293 cell cultures. The recombinant viral DNA contains a luciferase gene cassette within the HIV env gene region and the production of luciferase in target cells is dependent on the completion of one round of virus replication. Drug susceptibility is measured by adding serial concentrations of the compound of the invention and the reference compounds to the cells. Drugs that inhibit virus replication reduce luciferase signal in a dose-dependent manner, providing a quantitative measure of drug susceptibility.

HIV = assay: Antiretroviral ED50 in human H9 cells; assay type: cell-based; conditions: Human immunodeficiency virus 1
[6] = primer rescue mutant isolates of Table 4
[7] = patient isolates 20 and 21, isolate not specified, compared to wildtype

Question: For Nc1ccn([C@H]2CC[C@@H](COP(=O)(O)OP(=O)(O)OP(=O)(O)O)O2)c(=O)n1 [ddCTP, ddC-triphosphate, reference compound], which “residual 3-OH primer terminus left to support further DNA prolongation” value (HIV-1 RT [1]) is on record?
Answer: less than half

Question: And the chain termination pattern (HIV-1 RT [2]; lane 2, 1st positive control, 8 μM)?
Answer: led to chain termination at the anticipated 2′3′-deoxydeoxycytosine sites

Question: And the chain termination pattern (HIV-1 RT [2]; lane 10, 2nd positive control (USB sequence kit))?
Answer: led to chain termination at anticipated 2′3′-deoxydeoxycytosine sites

Question: For CCCCC(=O)OCC1CC(n2ccc(N)nc2=O)OC1COC(=O)CCCC (centres unmarked) [Compound 22, 5′-O-pentanoyl-2′-3′-dideoxy-3-C-pentanoyl-oxymethylcytosine], which “Concentration of parent uM 5 min” value [3] is on record?
Answer: 4.0 µM

Question: What about the “Concentration of parent uM 20 min” value [3] of the same compound?
Answer: 4.5 µM

Question: And the “Concentration of parent uM O min” value [3]?
Answer: 4.2 µM

Question: Which results are given for CC(C)[C@H](N)C(=O)OCC1CC(n2ccc(N)nc2=O)OC1CO (stereo partly drawn) [Compound 5, 2′-3′-dideoxy-3-C-(L-valyl-oxymethyl)cytosine]?
Answer: Concentration of parent uM 5 min [3]: 0.4 µM; Concentration of parent uM 20 min [3]: 1.0 µM; Concentration of parent uM O min [3]: 0 µM

Question: Which results are given for Cc1cn([C@H]2C[C@H](N=[N+]=[N-])[C@@H](CO)O2)c(=O)[nH]c1=O [AZT, zidovudine]?
Answer: FC value ([4]; isolate 7086 (T215V)): 3.0; FC value [4, 6]: a couple of hundred folds; FC value [5]: 1.11

Question: Which “Concentration of parent uM 5 min” value [3] does the source give for CC(C)[C@H](N)C(=O)O[C@@H](C)C(=O)OCC1CC(n2ccc(N)nc2=O)OC1CO (stereo partly drawn) [Compound 14, 2′,3′-dideoxy-3′-C-[2-S-(L-valyloxy)-propionyl]-oxymethylcytosine] here?
Answer: 4.5 µM

Question: What about the “Concentration of parent uM 20 min” value [3] of the same compound?
Answer: 4.6 µM

Question: And the “Concentration of parent uM O min” value [3]?
Answer: 4.6 µM

Question: With CC(C)[C@H](N)C(=O)OCC1CC(n2ccc(N)nc2=O)OC1COC(=O)[C@@H](N)C(C)C (stereo partly drawn) [Compound 8, 5′-O-L-valyl-2′,3′-dideoxy-3′-C-L-valyloxymethylcytosine] as the compound, how does the “Concentration of parent uM 5 min” value [3] read?
Answer: 0.2 µM

Question: What about the “Concentration of parent uM 20 min” value [3] of the same compound?
Answer: 0.3 µM

Question: And the “Concentration of parent uM O min” value [3]?
Answer: 0.1 µM

Question: With C[C@H](Cn1cnc2c(N)ncnc21)OCP(=O)(O)O [TNF, tenofovir] as the compound, how does the “fold reduction in susceptibility” value [5, 7] read?
Answer: lost potency

Question: For CCCCC(=O)OC[C@H]1C[C@H](n2ccc(N)nc2=O)O[C@@H]1CO [Compound 24, 2′,3′-dideoxy-3′-C-pentanoyl-oxymethylcytosine], which “Concentration of parent uM 5 min” value [3] is on record?
Answer: 4.2 µM

Question: What about the “Concentration of parent uM 20 min” value [3] of the same compound?
Answer: 4.4 µM

Question: And the “Concentration of parent uM O min” value [3]?
Answer: 3.9 µM

Question: What does the source list for Cc1cn([C@H]2C=C[C@@H](CO)O2)c(=O)[nH]c1=O [d4T, stavudine]?
Answer: FC value [5]: 0.71; fold reduction in susceptibility [5, 7]: lost potency

Question: For Nc1ccn([C@@H]2CS[C@H](CO)O2)c(=O)n1 [Compound 3TC, lamivudine], which FC value [5] is on record?
Answer: > 200

Question: Which results are given for Nc1nc(=O)n([C@@H]2CS[C@H](CO)O2)cc1F [FTC, emtricitabine]?
Answer: FC value [5]: > 40; fold reduction in susceptibility [5, 7]: lost potency

Question: For Nc1ccn([C@H]2C[C@H](CO)[C@@H](COP(=O)(O)OP(=O)(O)OP(=O)(O)O)O2)c(=O)n1 [inventionTP, 2′-3′-dideoxy-3′-C-hydroxymethylcytidine-triphosphate], which chain termination pattern (HIV-1 RT [2]; lane 3, 20 μM TP / 200 μM dNTP) is on record?
Answer: led to chain termination at the site after/behind 2′3′-deoxydeoxycytosine site

Question: And the chain termination pattern (HIV-1 RT [2]; lane 4, 30 μM TP / 300 μM dNTP)?
Answer: led to chain termination at the site after 2′3′-deoxydeoxycytosine site

Question: What about the chain termination pattern (HIV-1 RT [2]; lane 5, 40 μM TP / 400 μM dNTP) of the same compound?
Answer: lead to chain termination at the site after 2′3′-deoxydeoxycytosine site

Question: And the chain termination pattern (HIV-1 RT [2]; lane 6, 50 μM TP / 500 μM dNTP)?
Answer: No specific pause (chain termination pattern) was found

Question: What about the chain termination pattern (HIV-1 RT [2]; lane 7, 20 μM TP / 80 μM dNTP) of the same compound?
Answer: led to a more pronounced chain termination effect at the site after the 2′3′-deoxydeoxycytosine site

Question: And the chain termination pattern (HIV-1 RT [2]; lane 8, 40 μM TP / 80 μM dNTP)?
Answer: led to a more pronounced chain termination effect at the site after the 2′3′-deoxydeoxycytosine site

Question: Which results are given for Nc1ccn([C@H]2C[C@H](CO)[C@@H](CO)O2)c(=O)n1 [compound of the invention, 2′,3′-dideoxy-3′-C-hydroxymethylcytidine]?
Answer: FC value [4, 6]: ≤ 2.7; EC50 (HIV): ~10 nM; FC value [5]: 3.88; fold difference in susceptibility ([5]; patient isolate 19 (M184V + TAMs), compared to wild type HIV): 1.78 fold; fold reduction in susceptibility ([5]; patient isolate 20 (TAM), compared to wild-type HIV): 1.0 fold; fold reduction in susceptibility ([5]; patient isolate 21 (TAM), compared to wild-type HIV): < 1.0 fold; fold reduction in susceptibility ([5]; patient isolate 32 (T69S + VG insertion)): 2.79 fold; fold reduction in susceptibility ([5]; patient isolate 35 (T69S + VA insertion)): 4.29 fold; change in drug susceptibility ([5]; patient isolates 31, 32 and 35 (T69S + XX + TAMs), compared with six reference antivirals): smallest change in drug susceptibility

Question: For Nc1nc(NC2CC2)c2ncn([C@H]3C=C[C@@H](CO)C3)c2n1 [ABC, abacavir], which FC value [5] is on record?
Answer: > 9.0

Question: And the “fold reduction in susceptibility” value [5, 7]?
Answer: lost potency
